pIC50: −log10 of the molar value. Where two headings read alike, the source gives them in different places. A value given as a limit tells only on which side of the number the result lay.

This is an account of results in US20150269307A1, “TARGET INHIBITION MAP SYSTEM FOR COMBINATION THERAPY DESIGN AND METHODS OF USING SAME” (Texas Tech University System, priority 2014, published 2015).

Experiment [1] relates to human patient-derived xenografts. Nature of the experiment: Xenograft-derived chemical screen (Supplemental Table 3). Conditions: 60 agent PPTI screen; for pIC50: read-out: IC50 Value. In kind it is cell-based. As to the method: Three chemical screens were applied to the U23674 primary tumor cell culture. […] The target inhibition profile is a quantified description of the inhibitory properties of the compound on the numerous protein targets preset on the PPTI screen.
To screen the chemical agents, cell cultures were plated in 384 well plates at a seeding density of 2000 cells per well over graded concentrations of the numerous compounds. The chemical concentrations were between 10 nM and […] depending on the activity range of the compounds. The cells were incubated in DMEM supplemented with 1% penicillin streptomycin, and 10% fetal bovine serum for 72 hours. Chemical sensitivity was determined by an MTS cell viability assay after the 72 hour incubation period. The sensitivity responses at the different concentrations were used to determine the chemical IC50 using a hill curve fitting algorithm with variable hill slope coefficients.

The subject of a further experiment is DIPG neurospheres. In words: cells. Conditions: for pIC50: 48 h, read-out: In Vitro Absolute IC50; for viability at 10 µM: read-out: cell viability (cytocidal).

Procedure for DIPG neurospheres: Primary cultures of DIPG neurospheres were added to 384 well plates pre-plated with 60 known drugs in an increasing gradient of concentrations. […] To complete this drug screen, primary cultures of nestin […] 53 deficient DIPG neurospheres were added to plates with 60 known drug samples in an increasing gradient of concentrations.

Turning to `Nc1ccccc1NC(=O)c1ccc(CNC(=O)OCc2cccnc2)cc1` [entinostat], the pIC50 in experiment [1] (Homo sapiens) is 5.75.

As to `CS(=O)(=O)CCNCc1ccc(-c2ccc3ncnc(Nc4ccc(OCc5cccc(F)c5)c(Cl)c4)c3c2)o1` [lapatinib], the “IC50 Value” in experiment [1] was “>conc tested”.

Regarding `COc1cc(Nc2ncc(F)c(Nc3ccc4c(n3)N(COP(=O)(O)O)C(=O)C(C)(C)O4)n2)cc(OC)c1OC` [fostamatinib], in experiment [1] (Homo sapiens), the pIC50 is 5.29.

In the case of `CCN(CC)CCNC(=O)c1c(C)[nH]c(/C=C2\C(=O)Nc3ccc(F)cc32)c1C` [Sunitinib], in the experiment with DIPG neurospheres, the pIC50 is 5.16 and the viability at 10 µM was less than 15%.

`C[C@@H](Oc1cc(-c2cnn(C3CCNCC3)c2)cnc1N)c1c(Cl)ccc(F)c1Cl` [Crizontinib, crizotinib]: the figures for the pIC50 (in experiment [1] (Homo sapiens); in the experiment on DIPG neurospheres) were 5.29 and 5.21, respectively. Moreover, the viability at 10 µM with DIPG neurospheres was less than 15%.

As for `COc1cc(Nc2ncc3c(n2)-c2ccc(Cl)cc2C(c2c(F)cccc2OC)=NC3)ccc1C(=O)O` [alisertib], the “IC50 Value” in experiment [1] is reported as “>conc tested”.

In the case of `CC(C)C[C@H](NC(=O)[C@H](CCc1ccccc1)NC(=O)CN1CCOCC1)C(=O)N[C@@H](Cc1ccccc1)C(=O)N[C@@H](CC(C)C)C(=O)[C@@]1(C)CO1` [Carfilzomib], the pIC50 in experiment [1] (Homo sapiens) is 6.07. Moreover, in the experiment with DIPG neurospheres, the pIC50 is 6.08 and the viability at 10 µM is less than 15%.

With `CS(=O)(=O)c1ccc(C(=O)Nc2ccc(Cl)c(-c3ccccn3)c2)c(Cl)c1` [vismodegib], the “IC50 Value” in experiment [1] was “>conc tested”.

Turning to `CN(C)c1ccccc1CN1CCCN(Cc2ccccc2N(C)C)C1c1ccncc1` [GANT61], the pIC50 in experiment [1] is 5.13.

For `Cc1cn(-c2cc(NC(=O)c3ccc(C)c(Nc4nccc(-c5cccnc5)n4)c3)cc(C(F)(F)F)c2)cn1` [nilotinib], the “IC50 Value” in experiment [1] is recorded as “>conc tested”.

As to `CCOc1cc(/C=C2/C(=O)N(c3ccccc3)N=C2C)cc(Cl)c1OCC(=O)OC` [SJ-172550], the “IC50 Value” in experiment [1] is “>conc tested”.

As for `CCN(CC)CCCC(C)Nc1c2ccc(Cl)cc2nc2ccc(OC)cc12` (centres unmarked) [quinacrine], the pIC50 in experiment [1] (Homo sapiens) is 5.31.

Regarding `COc1cc2c(Nc3ccc(Br)cc3F)ncnc2cc1OCC1CCN(C)CC1` [vandetanib], in experiment [1] (Homo sapiens), the pIC50 was 5.52.

As for `CC(C)(C)c1cnc(CSc2cnc(NC(=O)C3CCNCC3)s2)o1` [SNS-032], the “IC50 Value” in experiment [1] was “>conc tested”. Also, in the experiment with DIPG neurospheres, the negative-log IC50 (pIC50) is 6.30 and the viability at 10 µM was less than 15%.

As to `N#Cc1ccc(COC[C@H]2O[C@@H](n3c(NCc4ccc(Cl)c(Cl)c4)nc4c(N)ncnc43)[C@H](O)[C@@H]2O)cc1` [VER-155008], the “IC50 Value” in experiment [1] is on record as “>conc tested”.

In the case of `CN1CC[C@H](c2c(O)cc(O)c3c(=O)cc(-c4ccccc4Cl)oc23)[C@H](O)C1` [alvocidib], in experiment [1], the “IC50 Value” is on record as “>conc tested”.

For the molecule `CC1=C(/C=C/C(C)=C/C=C/C(C)=C/C(=O)O)C(C)(C)CCC1` [tretinoin], the “IC50 Value” in experiment [1] is recorded as “>conc tested”.

As to `Cn1c(=O)n(-c2ccc(C(C)(C)C#N)cc2)c2c3cc(-c4cnc5ccccc5c4)ccc3ncc21` [BEZ235], the “IC50 Value” in experiment [1] was “>conc tested”.

For the molecule `Cc1[nH]c2ccccc2c1CCNCc1ccc(/C=C/C(=O)NO)cc1` [panobinostat], in experiment [1] (Homo sapiens), the pIC50 is 6.61.

Take `CN(c1ncccc1CNc1nc(Nc2ccc3c(c2)CC(=O)N3)ncc1C(F)(F)F)S(C)(=O)=O` [PF-562271]: in experiment [1], the “IC50 Value” is recorded as “>conc tested”.

As for `Cn1cc(C2=C(c3cn(C4CCN(Cc5ccccn5)CC4)c4ccccc34)C(=O)NC2=O)c2ccccc21` [enzastaurin], the “IC50 Value” in experiment [1] is given as “>conc tested”.

Consider `COc1nc(C)cnc1NS(=O)(=O)c1cccnc1-c1ccc(-c2nnco2)cc1` [zibotentan], for which the “IC50 Value” in experiment [1] is on record as “>conc tested”.

In the case of `NC1(c2ccc(-c3nc4ccn5c(=O)[nH]nc5c4cc3-c3ccccc3)cc2)CCC1` [MK-2206], the pIC50 in experiment [1] (Homo sapiens) is 5.26.

For `CC(C)[C@H]1C(=O)N[C@@H](CCCN=C(N)N)C(=O)NCC(=O)N[C@@H](CC(=O)O)C(=O)N[C@H](Cc2ccccc2)C(=O)N1C` [cilengitide], the “IC50 Value” in experiment [1] is given as “>conc tested”.

With `CC(=O)N[C@@H](CS)C(=O)O` [NAC, N-acetyl cysteine], the “IC50 Value” in experiment [1] was “>conc tested”.

Consider `Cc1cc(Nc2cc(N3CCN(C)CC3)nc(Sc3ccc(NC(=O)C4CC4)cc3)n2)[nH]n1` [tozasertib], for which the “IC50 Value” in experiment [1] is given as “>conc tested”.

In the case of `Nc1cccc2c1CN(C1CCC(=O)NC1=O)C2=O` (centres unmarked) [lenalidomide], the “IC50 Value” in experiment [1] is reported as “>conc tested”.

For the molecule `CC(C)C[C@H](NC(=O)[C@H](Cc1ccccc1)NC(=O)c1cnccn1)B(O)O` [bortezomib], the negative-log IC50 (pIC50) in experiment [1] (Homo sapiens) was 6.09.

On to `CNC(=O)CN1CCC(Oc2cc3c(Nc4cccc(Cl)c4F)ncnc3cc2OC)CC1` [AZD-8931], for which the “IC50 Value” in experiment [1] is listed as “>conc tested”.

As for `COc1cc2nc(N3CCCN(C)CC3)nc(NC3CCN(Cc4ccccc4)CC3)c2cc1OC` [BIX-01294], the pIC50 in experiment [1] (Homo sapiens) was 5.17. In the experiment with DIPG neurospheres, the pIC50 was 5.40 and the viability at 10 µM is less than 15%.

On to `CC(C)(C(=O)NCC(F)(F)C(F)(F)F)C(=O)N[C@@H]1C(=O)Nc2ccccc2-c2ccccc21` [RO4929097], for which the “IC50 Value” in experiment [1] was “>conc tested”.

In the case of `CC(/C=C/C(=O)NO)=C\[C@@H](C)C(=O)c1ccc(N(C)C)cc1` [trichostatin A], the pIC50 in experiment [1] is 5.26.

`CC1=C(/C=C/C(C)=C/C=C/C(C)=C/C(=O)Nc2ccc(O)cc2)C(C)(C)CCC1` [fenretinide]: the “IC50 Value” in experiment [1] is “>conc tested”.

As for `CCCC(=O)[O-].[Na+]` [sodium butyrate], the “IC50 Value” in experiment [1] is reported as “>conc tested”.

`CCOc1cc2ncc(C#N)c(Nc3ccc(F)c(Cl)c3)c2cc1NC(=O)/C=C/CN(C)C` [pelitinib]: the “IC50 Value” in experiment [1] is listed as “>conc tested”.

`COc1cc2c(Oc3ccc4[nH]c(C)cc4c3F)ncnc2cc1OCCCN1CCCC1` [cediranib]: the “IC50 Value” in experiment [1] is reported as “>conc tested”.

Consider `CO[C@H]1C[C@@H]2CC[C@@H](C)[C@@](O)(O2)C(=O)C(=O)N2CCCC[C@H]2C(=O)O[C@H]([C@H](C)C[C@@H]2CC[C@@H](OC(=O)C(C)(CO)CO)[C@H](OC)C2)CC(=O)[C@H](C)/C=C(\C)[C@@H](O)[C@@H](OC)C(=O)[C@H](C)C[C@H](C)/C=C/C=C/C=C/1C` [temsirolimus], for which, in experiment [1], the “IC50 Value” is recorded as “>conc tested”.

For `COC1=CC(c2cc3ccccc3[nH]2)=N/C1=C\c1[nH]c(C)cc1C` [Obatoclax], in the experiment with DIPG neurospheres, the pIC50 was 6.80 and the viability at 10 µM was less than 15%.

Regarding `CNC(=O)c1cc(Oc2ccc(NC(=O)Nc3ccc(Cl)c(C(F)(F)F)c3)cc2)ccn1` [sorafenib], in experiment [1] (Homo sapiens), the pIC50 was 5.21.

For `NC(=O)c1ccc(-c2nc(-c3ccc4c(c3)OCO4)c(-c3ccccn3)[nH]2)cc1` [SB-431542], in experiment [1], the “IC50 Value” was “>conc tested”.

Regarding `CN(C)CC[C@H](CSc1ccccc1)Nc1ccc(S(=O)(=O)NC(=O)c2ccc(N3CCN(Cc4ccccc4-c4ccc(Cl)cc4)CC3)cc2)cc1[N+](=O)[O-]` [ABT-737], the pIC50 in experiment [1] (Homo sapiens) was 5.58.

As for `C[C@]1(c2nc3c(C(N)=O)cccc3[nH]2)CCCN1` [veliparib], in experiment [1], the “IC50 Value” is recorded as “>conc tested”.

Consider `CCNC(=O)c1noc(-c2cc(C(C)C)c(O)cc2O)c1-c1ccc(CN2CCOCC2)cc1` [AUY922], for which, in experiment [1] (Homo sapiens), the negative logarithm of the IC50 (pIC50) was 5.99.

As a reminder, the pIC50 is the IC50 on a negative log10 scale, so that one unit is a factor of ten. As usually defined, the viability is the share of living cells, or the viability signal relative to a control.
